Columns and labels:
Conditions in all cases: 48 h
[1] = test system: P12-Ichikawa; assay: AUC of viability dose-response curve (% viability x log10 dose units); higher = less sensitive
Summary of the method: (§1)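 Leukemia cells adapted to each medium were seeded at 500 or 1000 cells/well in 1536-well plates and dosed with library compounds in DMSO at 11 threefold doses from 47 μM to 0.79 nM for 48 h at 37°C. CellTiter-Glo One luminescence was normalised per plate to DMSO and cell-free wells, then fitted with a four-parameter log-logistic model over log10 doses. Area under the curve was taken from this fit by the trapezoidal rule, with curves above full viability scaled and curves failing quality control removed.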

[2] = test system: NOMO1; assay: as above
Summary of the method: as §1

[3] = test system: SEM cells; assay: as above
Summary of the method: as §1

[4] = test system: P12-Ichikawa; assay: cell viability relative to DMSO control; higher = less cytotoxic
Summary of the method: (§2)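 Before seeding, each leukemia line was adapted for at least four passages in each medium. NOMO1 or SEM cells (500 cells/well) and P12-Ichikawa cells (1000 cells/well) went into 1536-well plates at 5 μl, then received library compounds in DMSO by pin dosing across 11 threefold concentrations, 47 μM to 0.79 nM. Readout was CellTiter-Glo One luminescence after 48 h at 37°C, and viability is given as a per-plate percentage of DMSO wells, with cell-free wells as background.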

[5] = test system: NOMO1; assay: as above
Summary of the method: as §2

[6] = test system: SEM cells; assay: as above
Summary of the method: as §2

COc1ccc2c(c1OC)C(=O)O[C@H]2[C@H]1c2c(cc3c(c2OC)OCO3)CCN1C
AUC of viability dose-response curve
Conditions | [1] | [2] | [3]
HPLM + 10% dialyzed FBS | 284 | 246 | 263
RPMI 5 mM glucose + 10% FBS | 277 | 273 | 233
RPMI 5 mM glucose + 10% dialyzed FBS | 294 | 277 | 247

Nc1nc(Cl)nc2c1ncn2[C@@H]1O[C@H](CO)[C@@H](O)[C@@H]1F
cell viability [%]
Conditions | [4] | [5] | [6]
HPLM + 10% dialyzed FBS, 0.000781 µM | 18.2 | 41.7 | 14.5
HPLM + 10% dialyzed FBS, 0.00234 µM | 55.1 | 70.8 | 17
HPLM + 10% dialyzed FBS, 0.00702 µM | 15.7 | 43.4 | 16.4
HPLM + 10% dialyzed FBS, 0.0211 µM | 16.3 | 33.3 | 15.7
HPLM + 10% dialyzed FBS, 0.0632 µM | 18.8 | 26.6 | 18
HPLM + 10% dialyzed FBS, 0.19 µM | 15.4 | 18.2 | 16.5
HPLM + 10% dialyzed FBS, 0.569 µM | 15.2 | 24.7 | 15.1
HPLM + 10% dialyzed FBS, 1.71 µM | 11.8 | 23.9 | 16.1
HPLM + 10% dialyzed FBS, 5.12 µM | 13.5 | 21.2 | 10.2
HPLM + 10% dialyzed FBS, 15.4 µM | 10.6 | 18.1 | 8.98
HPLM + 10% dialyzed FBS, 46.1 µM | 8.95 | 18.6 | 4.93
RPMI 5 mM glucose + 10% FBS, 0.000781 µM | 32.2 | 77.2 | 15.3
RPMI 5 mM glucose + 10% FBS, 0.00234 µM | 50 | 131 | 20
RPMI 5 mM glucose + 10% FBS, 0.00702 µM | 15.6 | 49 | 18.8
RPMI 5 mM glucose + 10% FBS, 0.0211 µM | 14.8 | 27.2 | 16.8
RPMI 5 mM glucose + 10% FBS, 0.0632 µM | 16.3 | 20 | 14.3
RPMI 5 mM glucose + 10% FBS, 0.19 µM | 13.6 | 21.7 | 10.8
RPMI 5 mM glucose + 10% FBS, 0.569 µM | 10.6 | 16.9 | 9.77
RPMI 5 mM glucose + 10% FBS, 1.71 µM | 9.04 | 16.7 | 9.03
RPMI 5 mM glucose + 10% FBS, 5.12 µM | 8.02 | 18.4 | 5.46
RPMI 5 mM glucose + 10% FBS, 15.4 µM | 9.03 | 16 | 3.69
RPMI 5 mM glucose + 10% FBS, 46.1 µM | 5.68 | 13.5 | 2.88
RPMI 5 mM glucose + 10% dialyzed FBS, 0.000781 µM | 28.4 | 38.9 | 12.6
RPMI 5 mM glucose + 10% dialyzed FBS, 0.00234 µM | 37.2 | 63.2 | 14.1
RPMI 5 mM glucose + 10% dialyzed FBS, 0.00702 µM | 24.4 | 29.8 | 15.2
RPMI 5 mM glucose + 10% dialyzed FBS, 0.0211 µM | 23.5 | 25.7 | 16.5
RPMI 5 mM glucose + 10% dialyzed FBS, 0.0632 µM | 24.7 | 23 | 14
RPMI 5 mM glucose + 10% dialyzed FBS, 0.19 µM | 24.6 | 23.6 | 11.9
RPMI 5 mM glucose + 10% dialyzed FBS, 0.569 µM | 21.2 | 19.9 | 10.8
RPMI 5 mM glucose + 10% dialyzed FBS, 1.71 µM | 24.3 | 16.4 | 10.3
RPMI 5 mM glucose + 10% dialyzed FBS, 5.12 µM | 19 | 14.2 | 8.13
RPMI 5 mM glucose + 10% dialyzed FBS, 15.4 µM | 20.3 | 19.7 | 8.34
RPMI 5 mM glucose + 10% dialyzed FBS, 46.1 µM | 17.5 | 17.1 | 4.01

AUC of viability dose-response curve
Conditions | HPLM + 10% dialyzed FBS | RPMI 5 mM glucose + 10% FBS | RPMI 5 mM glucose + 10% dialyzed FBS
[1] | 83.1 | 75.7 | 115
[3] | 68 | 55.4 | 55.4

NC(=O)c1ccc2[nH]c(-c3ccc(Oc4ccc(Cl)cc4)cc3)nc2c1
[6], HPLM + 10% dialyzed FBS
Conditions | cell viability [%]
0.000781 µM | 115
0.00234 µM | 113
0.00702 µM | 136
0.0211 µM | 121
0.0632 µM | 117
0.19 µM | 65.4
0.569 µM | 133
1.71 µM | 124
5.12 µM | 134
15.4 µM | 118
46.1 µM | 91.9

AUC of viability dose-response curve
Conditions | [1] | [2] | [3]
HPLM + 10% dialyzed FBS | 463 | 457 | 470
RPMI 5 mM glucose + 10% FBS | 454 | 472 | 446
RPMI 5 mM glucose + 10% dialyzed FBS | 453 | 475 | 463

C[C@@]1(C(=O)Nc2ccc(F)nc2)CCCN1c1nc(Nc2cc(C3CC3)[nH]n2)c2cccn2n1
cell viability [%]
Conditions | [4] | [5] | [6]
HPLM + 10% dialyzed FBS, 0.000781 µM | 103 | 83.2 | 90.8
HPLM + 10% dialyzed FBS, 0.00234 µM | 109 | 108 | 98.6
HPLM + 10% dialyzed FBS, 0.00702 µM | 111 | 108 | 106
HPLM + 10% dialyzed FBS, 0.0211 µM | 112 | 89.9 | 97.2
HPLM + 10% dialyzed FBS, 0.0632 µM | 114 | 90.7 | 101
HPLM + 10% dialyzed FBS, 0.19 µM | 112 | 71.2 | 98.8
HPLM + 10% dialyzed FBS, 0.569 µM | 117 | 77.4 | 81.9
HPLM + 10% dialyzed FBS, 1.71 µM | 114 | 67.5 | 103
HPLM + 10% dialyzed FBS, 5.12 µM | 11.6 | 44.9 | 30.6
HPLM + 10% dialyzed FBS, 15.4 µM | 15.1 | 46.3 | 21.4
HPLM + 10% dialyzed FBS, 46.1 µM | 18.6 | 62 | 9.04
RPMI 5 mM glucose + 10% FBS, 0.000781 µM | 119 | 104 | 56.6
RPMI 5 mM glucose + 10% FBS, 0.00234 µM | 116 | 108 | 68.8
RPMI 5 mM glucose + 10% FBS, 0.00702 µM | 130 | 120 | 64.6
RPMI 5 mM glucose + 10% FBS, 0.0211 µM | 113 | 110 | 70.6
RPMI 5 mM glucose + 10% FBS, 0.0632 µM | 124 | 108 | 72.6
RPMI 5 mM glucose + 10% FBS, 0.19 µM | 120 | 93.3 | 77.2
RPMI 5 mM glucose + 10% FBS, 0.569 µM | 124 | 112 | 66.1
RPMI 5 mM glucose + 10% FBS, 1.71 µM | 116 | 86 | 60.1
RPMI 5 mM glucose + 10% FBS, 5.12 µM | 21.9 | 62.9 | 10.9
RPMI 5 mM glucose + 10% FBS, 15.4 µM | 23.2 | 56.8 | 8.82
RPMI 5 mM glucose + 10% FBS, 46.1 µM | 27.5 | 68.5 | 2.55
RPMI 5 mM glucose + 10% dialyzed FBS, 0.000781 µM | 107 | 96.6 | 95.4
RPMI 5 mM glucose + 10% dialyzed FBS, 0.00234 µM | 122 | 108 | 89.5
RPMI 5 mM glucose + 10% dialyzed FBS, 0.00702 µM | 135 | 105 | 102
RPMI 5 mM glucose + 10% dialyzed FBS, 0.0211 µM | 121 | 102 | 107
RPMI 5 mM glucose + 10% dialyzed FBS, 0.0632 µM | 129 | 97.9 | 112
RPMI 5 mM glucose + 10% dialyzed FBS, 0.19 µM | 126 | 85.4 | 92.3
RPMI 5 mM glucose + 10% dialyzed FBS, 0.569 µM | 131 | 80 | 104
RPMI 5 mM glucose + 10% dialyzed FBS, 1.71 µM | 121 | 86.2 | 96.5
RPMI 5 mM glucose + 10% dialyzed FBS, 5.12 µM | 32.2 | 51.6 | 18.8
RPMI 5 mM glucose + 10% dialyzed FBS, 15.4 µM | 41 | 55.2 | 16.4
RPMI 5 mM glucose + 10% dialyzed FBS, 46.1 µM | 43 | 60 | 6.22

AUC of viability dose-response curve
Conditions | HPLM + 10% dialyzed FBS | RPMI 5 mM glucose + 10% FBS | RPMI 5 mM glucose + 10% dialyzed FBS
[1] | 374 | 380 | 393
[2] | 369 | 417 | 392

Source: the supplement of paper PMC11451515
